Data published in the kinase profiling compilation of Christmann-Franck et al. (2016).

Columns and labels:
Assay in all cases: KINOMEscan competition binding
MYLK (human) = MYLK (human) (UniProt Q15746); settings: compound 10.0 µM
BMP2K (human) = BMP2K (human) (UniProt Q9NSY1); settings: compound 10.0 µM
STK33 (human) = STK33 (human) (UniProt Q9BYT3); settings: compound 10.0 µM
MAP4K2 (human) = MAP4K2 (human) (UniProt Q12851); settings: compound 10.0 µM
PIM1 (human) = PIM1 (human) (UniProt P11309); settings: compound 10.0 µM
PIP4K2B (human) = PIP4K2B (human) (UniProt P78356); settings: compound 10.0 µM
[1] = tested on: EGFR (human), P00533 [747-751 del / S ins]; settings: compound 10.0 µM
DAPK2 (human) = DAPK2 (human) (UniProt Q9UIK4); settings: compound 10.0 µM
[2] = biological target: JAK3 JH1 catalytic (human) (UniProt P52333); settings: compound 10.0 µM
PIP5K1A (human) = PIP5K1A (human) (UniProt Q99755); settings: compound 10.0 µM
TGFBR2 (human) = TGFBR2 (human) (UniProt P37173); settings: compound 10.0 µM
DAPK3 (human) = DAPK3 (human) (UniProt O43293); settings: compound 10.0 µM
TAOK1 (human) = TAOK1 (human) (UniProt Q7L7X3); settings: compound 10.0 µM
CDK7 (human) = CDK7 (human) (UniProt P50613); settings: compound 10.0 µM
SRPK2 (human) = SRPK2 (human) (UniProt P78362); settings: compound 10.0 µM
CLK2 (human) = CLK2 (human) (UniProt P49760); settings: compound 10.0 µM
CLK3 (human) = CLK3 (human) (UniProt P49761); settings: compound 10.0 µM
STK17A (human) = STK17A (human) (UniProt Q9UEE5); settings: compound 10.0 µM
PHKG2 (human) = PHKG2 (human) (UniProt P15735); settings: compound 10.0 µM
CSNK2A1 (human) = CSNK2A1 (human) (UniProt P68400); settings: compound 10.0 µM
PIM3 (human) = PIM3 (human) (UniProt Q86V86); settings: compound 10.0 µM
HIPK1 (human) = HIPK1 (human) (UniProt Q86Z02); settings: compound 10.0 µM
MYLK4 (human) = MYLK4 (human) (UniProt Q86YV6); settings: for kinase still bound, per cent of control: compound 10.0 µM
ACVR2B (human) = ACVR2B (human) (UniProt Q13705); settings: compound 10.0 µM
DMPK (human) = DMPK (human) (UniProt Q09013); settings: compound 10.0 µM
CSNK1E (human) = CSNK1E (human) (UniProt P49674); settings: compound 10.0 µM
[3] = tested on: KIT (human), P10721 [V559D]; settings: compound 10.0 µM
[4] = tested on: KIT (human), P10721 [D816V]; settings: compound 10.0 µM
[5] = tested on: KIT (human), P10721 [V559D/V654A]; settings: compound 10.0 µM
[6] = tested on: FLT3 (human), P36888 [D835Y]; settings: compound 10.0 µM
MKNK1 (human) = MKNK1 (human) (UniProt Q9BUB5); settings: compound 10.0 µM
MINK1 (human) = MINK1 (human) (UniProt Q8N4C8); settings: compound 10.0 µM
RPS6KA6 KD2 (human) = RPS6KA6 KD2 (human) (UniProt Q9UK32); settings: compound 10.0 µM
[7] = tested on: FLT3 (human), P36888 [N841I]; settings: compound 10.0 µM
MAP2K4 (human) = MAP2K4 (human) (UniProt P45985); settings: compound 10.0 µM
TNK1 (human) = TNK1 (human) (UniProt Q13470); settings: compound 10.0 µM
CDK16 (human) = CDK16 (human) (UniProt Q00536); settings: compound 10.0 µM
DCLK3 (human) = DCLK3 (human) (UniProt Q9C098); settings: compound 10.0 µM
PRKD1 (human) = PRKD1 (human) (UniProt Q15139); settings: compound 10.0 µM
[8] = tested on: KIT (human), P10721 [V559D/T670I]; settings: compound 10.0 µM
NEK2 (human) = NEK2 (human) (UniProt P51955); settings: compound 10.0 µM
RIPK2 (human) = RIPK2 (human) (UniProt O43353); settings: compound 10.0 µM

Sequence of PIP4K2B (human) (P78356 whole entry, looked up): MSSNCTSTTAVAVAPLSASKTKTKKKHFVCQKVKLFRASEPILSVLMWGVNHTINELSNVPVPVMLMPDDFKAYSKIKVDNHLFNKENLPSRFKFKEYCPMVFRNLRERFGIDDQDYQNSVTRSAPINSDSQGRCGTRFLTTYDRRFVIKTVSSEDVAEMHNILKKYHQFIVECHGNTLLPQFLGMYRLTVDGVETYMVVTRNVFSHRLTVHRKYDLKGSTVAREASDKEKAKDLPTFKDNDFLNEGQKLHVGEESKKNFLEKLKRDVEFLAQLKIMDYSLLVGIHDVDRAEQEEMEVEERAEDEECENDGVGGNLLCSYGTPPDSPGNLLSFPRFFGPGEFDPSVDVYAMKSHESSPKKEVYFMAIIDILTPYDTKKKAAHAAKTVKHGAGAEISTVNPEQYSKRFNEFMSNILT
Sequence of TGFBR2 (human) (P37173 whole entry, looked up): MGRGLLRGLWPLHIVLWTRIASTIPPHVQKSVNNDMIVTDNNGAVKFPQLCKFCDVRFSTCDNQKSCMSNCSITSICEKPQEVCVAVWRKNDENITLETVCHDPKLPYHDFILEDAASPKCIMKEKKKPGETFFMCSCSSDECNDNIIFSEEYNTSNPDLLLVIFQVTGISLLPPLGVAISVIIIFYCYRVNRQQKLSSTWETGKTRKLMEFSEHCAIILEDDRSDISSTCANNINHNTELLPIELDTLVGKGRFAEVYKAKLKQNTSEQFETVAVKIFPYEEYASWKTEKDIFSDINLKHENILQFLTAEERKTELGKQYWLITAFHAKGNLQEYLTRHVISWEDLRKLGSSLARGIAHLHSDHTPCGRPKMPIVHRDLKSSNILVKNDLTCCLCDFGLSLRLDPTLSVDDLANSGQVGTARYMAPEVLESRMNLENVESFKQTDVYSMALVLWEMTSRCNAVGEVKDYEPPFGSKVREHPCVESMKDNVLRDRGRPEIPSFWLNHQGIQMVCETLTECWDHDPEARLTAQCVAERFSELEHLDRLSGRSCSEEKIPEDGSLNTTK
Sequence of DAPK2 (human) (Q9UIK4 whole entry, looked up): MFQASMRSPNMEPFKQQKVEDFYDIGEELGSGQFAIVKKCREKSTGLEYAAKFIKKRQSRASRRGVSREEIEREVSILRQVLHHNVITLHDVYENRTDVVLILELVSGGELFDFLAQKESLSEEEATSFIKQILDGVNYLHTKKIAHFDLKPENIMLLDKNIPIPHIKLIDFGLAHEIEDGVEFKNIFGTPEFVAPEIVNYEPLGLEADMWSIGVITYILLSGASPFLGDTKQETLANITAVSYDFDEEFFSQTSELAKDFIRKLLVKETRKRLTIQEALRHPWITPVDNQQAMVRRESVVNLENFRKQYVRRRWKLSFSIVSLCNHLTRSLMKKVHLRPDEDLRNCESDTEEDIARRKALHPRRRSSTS
Sequence of CLK3 (human) (P49761 whole entry, looked up): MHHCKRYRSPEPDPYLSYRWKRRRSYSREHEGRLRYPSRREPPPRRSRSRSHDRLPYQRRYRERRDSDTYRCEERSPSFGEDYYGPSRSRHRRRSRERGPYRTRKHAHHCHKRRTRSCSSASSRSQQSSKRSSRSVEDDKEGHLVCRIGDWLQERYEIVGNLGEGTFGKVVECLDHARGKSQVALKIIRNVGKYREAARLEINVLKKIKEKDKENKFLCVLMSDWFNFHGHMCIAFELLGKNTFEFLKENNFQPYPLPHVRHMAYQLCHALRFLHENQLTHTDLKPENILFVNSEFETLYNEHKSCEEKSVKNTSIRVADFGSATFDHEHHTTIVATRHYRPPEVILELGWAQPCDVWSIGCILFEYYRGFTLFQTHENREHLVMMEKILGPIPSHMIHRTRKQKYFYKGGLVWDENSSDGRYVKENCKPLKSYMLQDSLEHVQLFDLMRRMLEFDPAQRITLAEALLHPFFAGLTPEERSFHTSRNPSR
Sequence of CSNK1E (human) (P49674 whole entry, looked up): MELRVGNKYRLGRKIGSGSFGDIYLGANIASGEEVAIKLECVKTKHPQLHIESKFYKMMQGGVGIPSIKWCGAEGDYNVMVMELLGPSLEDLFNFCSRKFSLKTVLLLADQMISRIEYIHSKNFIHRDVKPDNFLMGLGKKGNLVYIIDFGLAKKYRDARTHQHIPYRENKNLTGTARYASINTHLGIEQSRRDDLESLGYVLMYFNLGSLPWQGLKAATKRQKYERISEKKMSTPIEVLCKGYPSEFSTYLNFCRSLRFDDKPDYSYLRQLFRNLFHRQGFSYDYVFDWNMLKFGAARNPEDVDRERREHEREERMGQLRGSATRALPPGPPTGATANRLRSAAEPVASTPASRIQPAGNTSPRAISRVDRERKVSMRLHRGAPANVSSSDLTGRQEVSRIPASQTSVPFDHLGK
Sequence of KIT (human), P10721 [V559D] (P10721 whole entry V559D, looked up): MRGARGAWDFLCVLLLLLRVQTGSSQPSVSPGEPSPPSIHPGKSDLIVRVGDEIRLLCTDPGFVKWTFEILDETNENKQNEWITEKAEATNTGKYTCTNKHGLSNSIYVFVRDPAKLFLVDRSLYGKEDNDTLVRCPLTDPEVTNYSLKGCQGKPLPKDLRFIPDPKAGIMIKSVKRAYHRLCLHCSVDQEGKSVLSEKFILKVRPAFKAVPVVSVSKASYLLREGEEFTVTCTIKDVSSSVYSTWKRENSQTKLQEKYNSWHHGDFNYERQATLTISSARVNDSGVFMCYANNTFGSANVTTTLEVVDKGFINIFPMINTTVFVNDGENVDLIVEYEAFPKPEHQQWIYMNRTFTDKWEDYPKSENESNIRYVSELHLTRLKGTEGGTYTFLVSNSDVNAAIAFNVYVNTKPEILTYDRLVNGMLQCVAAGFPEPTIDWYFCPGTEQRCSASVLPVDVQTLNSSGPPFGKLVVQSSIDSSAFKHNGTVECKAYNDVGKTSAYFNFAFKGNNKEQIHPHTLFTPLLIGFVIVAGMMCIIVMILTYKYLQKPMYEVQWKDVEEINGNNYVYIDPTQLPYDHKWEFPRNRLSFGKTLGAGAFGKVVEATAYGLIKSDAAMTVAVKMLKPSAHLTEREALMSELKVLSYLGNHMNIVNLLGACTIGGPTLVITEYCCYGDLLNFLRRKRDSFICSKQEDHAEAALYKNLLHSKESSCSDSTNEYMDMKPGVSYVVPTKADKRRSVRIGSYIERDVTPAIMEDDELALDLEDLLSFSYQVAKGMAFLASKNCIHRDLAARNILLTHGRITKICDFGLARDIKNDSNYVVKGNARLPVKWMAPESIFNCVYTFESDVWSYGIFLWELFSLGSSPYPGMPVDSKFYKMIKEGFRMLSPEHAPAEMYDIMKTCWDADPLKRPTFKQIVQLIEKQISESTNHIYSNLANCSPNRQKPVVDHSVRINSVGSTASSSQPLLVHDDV
Sequence of PHKG2 (human) (P15735 whole entry, looked up): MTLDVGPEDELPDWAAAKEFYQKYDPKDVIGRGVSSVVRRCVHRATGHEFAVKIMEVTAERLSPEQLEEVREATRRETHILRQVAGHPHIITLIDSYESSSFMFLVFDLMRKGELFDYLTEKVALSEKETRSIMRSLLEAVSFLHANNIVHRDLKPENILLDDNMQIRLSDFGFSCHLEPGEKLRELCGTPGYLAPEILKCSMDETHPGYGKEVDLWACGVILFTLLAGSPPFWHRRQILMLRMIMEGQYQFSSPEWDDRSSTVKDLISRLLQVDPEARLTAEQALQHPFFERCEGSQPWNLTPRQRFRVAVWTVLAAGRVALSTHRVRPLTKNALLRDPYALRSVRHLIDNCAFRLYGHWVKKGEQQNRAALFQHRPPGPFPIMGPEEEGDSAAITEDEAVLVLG
Sequence of PIP5K1A (human) (Q99755 whole entry, looked up): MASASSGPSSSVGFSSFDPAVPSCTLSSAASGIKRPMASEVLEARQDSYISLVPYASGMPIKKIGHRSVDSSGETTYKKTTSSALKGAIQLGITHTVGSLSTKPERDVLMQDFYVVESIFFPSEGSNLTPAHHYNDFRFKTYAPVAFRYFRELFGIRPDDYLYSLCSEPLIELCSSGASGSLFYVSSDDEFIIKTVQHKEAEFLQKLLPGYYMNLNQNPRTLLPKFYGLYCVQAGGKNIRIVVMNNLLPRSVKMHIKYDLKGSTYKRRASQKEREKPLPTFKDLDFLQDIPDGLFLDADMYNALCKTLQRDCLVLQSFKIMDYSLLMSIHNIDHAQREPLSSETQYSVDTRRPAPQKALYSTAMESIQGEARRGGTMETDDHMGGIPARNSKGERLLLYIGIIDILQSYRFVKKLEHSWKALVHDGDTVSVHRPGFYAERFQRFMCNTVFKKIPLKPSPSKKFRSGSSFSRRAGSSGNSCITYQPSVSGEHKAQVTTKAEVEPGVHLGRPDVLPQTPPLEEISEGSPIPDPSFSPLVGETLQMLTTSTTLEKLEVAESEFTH
Sequence of DAPK3 (human) (O43293 whole entry, looked up): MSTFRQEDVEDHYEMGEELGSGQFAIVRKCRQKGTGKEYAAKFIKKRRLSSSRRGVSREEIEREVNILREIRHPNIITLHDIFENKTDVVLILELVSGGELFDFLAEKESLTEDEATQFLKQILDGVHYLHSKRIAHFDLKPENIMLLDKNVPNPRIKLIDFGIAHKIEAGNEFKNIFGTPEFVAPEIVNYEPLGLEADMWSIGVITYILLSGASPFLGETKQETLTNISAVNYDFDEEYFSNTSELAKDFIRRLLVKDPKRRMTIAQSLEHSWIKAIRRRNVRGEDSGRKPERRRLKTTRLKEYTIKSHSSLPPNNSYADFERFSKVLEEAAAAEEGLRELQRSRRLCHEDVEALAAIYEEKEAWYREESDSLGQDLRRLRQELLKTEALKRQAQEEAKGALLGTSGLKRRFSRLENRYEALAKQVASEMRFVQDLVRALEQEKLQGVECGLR

SMILES	kinase still bound, per cent of control (BMP2K (human)) [%]	kinase still bound, per cent of control (MAP4K2 (human)) [%]	kinase still bound, per cent of control (PIM1 (human)) [%]	kinase still bound, per cent of control (PIP4K2B (human)) [%]	kinase still bound, per cent of control (DAPK2 (human)) [%]	kinase still bound, per cent of control [2] [%]	kinase still bound, per cent of control (PIP5K1A (human)) [%]	kinase still bound, per cent of control (TGFBR2 (human)) [%]	kinase still bound, per cent of control (DAPK3 (human)) [%]	kinase still bound, per cent of control (TAOK1 (human)) [%]	kinase still bound, per cent of control (CDK7 (human)) [%]	kinase still bound, per cent of control (SRPK2 (human)) [%]	kinase still bound, per cent of control (CLK2 (human)) [%]	kinase still bound, per cent of control (CLK3 (human)) [%]	kinase still bound, per cent of control (STK17A (human)) [%]	kinase still bound, per cent of control (PHKG2 (human)) [%]	kinase still bound, per cent of control (CSNK2A1 (human)) [%]	kinase still bound, per cent of control (PIM3 (human)) [%]	kinase still bound, per cent of control (HIPK1 (human)) [%]	kinase still bound, per cent of control (ACVR2B (human)) [%]	other results
Nc1cccc(-c2cc(/C=C3\SC(=O)NC3=O)c[nH]c2=O)c1	1	30	4.8	6.6	0.2	6.8	17	26	0.6	21	8.8	26	0	1.2	0.3	11	17	5.4	0.2	10	kinase still bound, per cent of control (MYLK (human)): 25%; kinase still bound, per cent of control (STK33 (human)): 19%; kinase still bound, per cent of control [1]: 4.8%; kinase still bound, per cent of control (MYLK4 (human)): 2.8%; kinase still bound, per cent of control (DMPK (human)): 27%; kinase still bound, per cent of control (CSNK1E (human)): 26%
O=C1NC(=S)S/C1=C\c1ccc(-c2cncc3ccccc23)o1	0.4		2.7	5.5	9.3	21	17	5.2	7.4			32	3.1		0	8.1	3.2	2.7	3.4	25	kinase still bound, per cent of control [3]: 26%; kinase still bound, per cent of control [4]: 9.6%; kinase still bound, per cent of control [5]: 23%; kinase still bound, per cent of control [6]: 1.8%; kinase still bound, per cent of control (MKNK1 (human)): 33%; kinase still bound, per cent of control (MINK1 (human)): 33%; kinase still bound, per cent of control (RPS6KA6 KD2 (human)): 5.4%; kinase still bound, per cent of control [7]: 4%; kinase still bound, per cent of control (MAP2K4 (human)): 20%; kinase still bound, per cent of control (TNK1 (human)): 8.4%; kinase still bound, per cent of control (MYLK4 (human)): 0.25%; kinase still bound, per cent of control (CDK16 (human)): 5.2%; kinase still bound, per cent of control (CSNK1E (human)): 7%
N=C1NC(=O)/C(=C/c2ccc(-c3cncc4ccccc34)o2)S1	0	6.9	0.7	2.6	7.4		3.3	0.85	6.2	10	14	9.9	1.6	18	0.05	10	6.4	1.6		7.6	kinase still bound, per cent of control (MYLK (human)): 19%; kinase still bound, per cent of control (STK33 (human)): 12%; kinase still bound, per cent of control [3]: 7.2%; kinase still bound, per cent of control (DCLK3 (human)): 30%; kinase still bound, per cent of control [4]: 3.8%; kinase still bound, per cent of control (PRKD1 (human)): 16%; kinase still bound, per cent of control [5]: 23%; kinase still bound, per cent of control [6]: 0.45%; kinase still bound, per cent of control (MKNK1 (human)): 0.8%; kinase still bound, per cent of control [8]: 14%; kinase still bound, per cent of control (RPS6KA6 KD2 (human)): 8.6%; kinase still bound, per cent of control [7]: 0.95%; kinase still bound, per cent of control (TNK1 (human)): 14%; Kd (MYLK4 (human)): 55 nM; kinase still bound, per cent of control (MYLK4 (human)): 0.05%; kinase still bound, per cent of control (CDK16 (human)): 9.8%; kinase still bound, per cent of control (CSNK1E (human)): 1.4%
CS(=O)(=O)Nc1ccc(-c2cc(/C=C3\SC(=N)NC3=O)c[nH]c2=O)cc1	2.2	12	9.5	13	2.2	29		0.85	4.4	23	26	2.3	5.2	2.4	3.4		4.8	6.1	0.5	12	kinase still bound, per cent of control [3]: 12%; kinase still bound, per cent of control [4]: 19%; kinase still bound, per cent of control (PRKD1 (human)): 15%; kinase still bound, per cent of control [6]: 20%; kinase still bound, per cent of control (MINK1 (human)): 15%; kinase still bound, per cent of control [8]: 32%; kinase still bound, per cent of control [7]: 30%; kinase still bound, per cent of control (NEK2 (human)): 19%; kinase still bound, per cent of control (RIPK2 (human)): 11%; kinase still bound, per cent of control (DMPK (human)): 6.4%
